Like-named read-outs stand apart in the source and are kept apart here.
Tests used:
PRC2 containing wt EZH2 = target: T1, PRC2 containing wt EZH2 (Homo sapiens, UniProt Q15910); test: EZH2 pep BSA Brij 4.0 LowE (IC50): 3H-SAM incorporation into biotinylated H3 peptide; type: biochemical; settings: 20 pM PRC2 wt EZH2, 0.9 μM 3H-SAM, biotinylated H3 peptide substrate, 2 μM H3K27me3 activating peptide
T1 construct: made in house
Outline: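 PRC2 (wt EZH2, 20 pM) pre-incubated 120 min with compound, 0.9 μM 3H-SAM and 2 μM H3K27me3 activating peptide in pH 8.5 Tris/DTT/Brij-35/0.1% BSA, 0.8% DMSO. Biotinylated H3K27me1 peptide added (2 μM stock), 5 h at room temperature, EDTA/SAH quench, streptavidin Flashplate capture. IC50 from four-parameter fit versus full-activity and no-enzyme controls.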

H3K27me3 mark = test: H3K27me3 Alpha Hela Assay (AlphaLISA); type: cell-based; settings: Hela cells, read-out: EZH2 Cell H3K27me3 Alpha HeLa (EC50 K27me3)
Outline: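 HeLa cells at 1,000/well were treated with ten 3-fold compound doses for 72 h at 37 °C. After lysis and histone extraction, H3K27me3 was detected by AlphaLISA with anti-K27me3 acceptor beads, biotinylated anti-H3 (C-ter) antibody (3 nM final) and streptavidin donor beads (20 μg/mL final). Signals were normalized to DMSO and curve-fitted for EC50.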

EZH2 = EZH2 (Homo sapiens, UniProt Q15910); test: EZH2 nuc BSA Brij 1.5 (IC50): rPRC2, biotinylated oligonucleosome substrate, 3H SAM FlashPlate; type: biochemical; settings: 2 nM EZH2, 0.2 μM biotinylated oligonucleosomes, 0.2 μM 3H SAM, 3.6 μM H3K27me3 peptide
Chain of EZH2 (Q15910 whole entry): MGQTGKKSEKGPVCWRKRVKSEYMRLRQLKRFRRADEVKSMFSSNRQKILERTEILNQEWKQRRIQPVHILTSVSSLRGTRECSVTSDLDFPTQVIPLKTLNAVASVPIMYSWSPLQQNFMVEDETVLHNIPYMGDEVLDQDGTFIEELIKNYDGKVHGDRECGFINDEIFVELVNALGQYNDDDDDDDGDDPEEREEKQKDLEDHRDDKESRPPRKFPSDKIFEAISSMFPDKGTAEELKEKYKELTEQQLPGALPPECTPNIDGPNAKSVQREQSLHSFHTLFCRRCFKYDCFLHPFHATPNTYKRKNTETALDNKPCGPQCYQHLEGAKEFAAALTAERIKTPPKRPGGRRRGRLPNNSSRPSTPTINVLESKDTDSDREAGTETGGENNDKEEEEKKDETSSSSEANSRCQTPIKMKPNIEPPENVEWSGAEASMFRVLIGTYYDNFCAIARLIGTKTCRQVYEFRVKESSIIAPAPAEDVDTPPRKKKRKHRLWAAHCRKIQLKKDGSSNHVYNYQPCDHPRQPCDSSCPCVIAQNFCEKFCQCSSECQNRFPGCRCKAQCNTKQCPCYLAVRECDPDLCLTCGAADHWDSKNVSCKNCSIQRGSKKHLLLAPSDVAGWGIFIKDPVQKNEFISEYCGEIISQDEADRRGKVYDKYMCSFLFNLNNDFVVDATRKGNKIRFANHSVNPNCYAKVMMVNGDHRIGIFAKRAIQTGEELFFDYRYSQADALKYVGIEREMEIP
Chain of EZH2 (O75530 whole entry partner): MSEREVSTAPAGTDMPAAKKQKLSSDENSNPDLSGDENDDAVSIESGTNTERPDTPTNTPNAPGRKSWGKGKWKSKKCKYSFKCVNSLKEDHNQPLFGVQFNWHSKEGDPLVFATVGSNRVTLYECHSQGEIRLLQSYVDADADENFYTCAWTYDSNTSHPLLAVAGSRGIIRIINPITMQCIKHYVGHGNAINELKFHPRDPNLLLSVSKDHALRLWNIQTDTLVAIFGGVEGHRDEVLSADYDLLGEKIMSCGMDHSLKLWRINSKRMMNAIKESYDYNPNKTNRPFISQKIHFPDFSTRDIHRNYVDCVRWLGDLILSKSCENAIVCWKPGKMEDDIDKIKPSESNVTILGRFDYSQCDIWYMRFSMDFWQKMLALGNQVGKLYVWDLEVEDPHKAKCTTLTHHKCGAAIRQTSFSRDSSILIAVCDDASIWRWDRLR
Chain of EZH2 (Q15022 whole entry partner): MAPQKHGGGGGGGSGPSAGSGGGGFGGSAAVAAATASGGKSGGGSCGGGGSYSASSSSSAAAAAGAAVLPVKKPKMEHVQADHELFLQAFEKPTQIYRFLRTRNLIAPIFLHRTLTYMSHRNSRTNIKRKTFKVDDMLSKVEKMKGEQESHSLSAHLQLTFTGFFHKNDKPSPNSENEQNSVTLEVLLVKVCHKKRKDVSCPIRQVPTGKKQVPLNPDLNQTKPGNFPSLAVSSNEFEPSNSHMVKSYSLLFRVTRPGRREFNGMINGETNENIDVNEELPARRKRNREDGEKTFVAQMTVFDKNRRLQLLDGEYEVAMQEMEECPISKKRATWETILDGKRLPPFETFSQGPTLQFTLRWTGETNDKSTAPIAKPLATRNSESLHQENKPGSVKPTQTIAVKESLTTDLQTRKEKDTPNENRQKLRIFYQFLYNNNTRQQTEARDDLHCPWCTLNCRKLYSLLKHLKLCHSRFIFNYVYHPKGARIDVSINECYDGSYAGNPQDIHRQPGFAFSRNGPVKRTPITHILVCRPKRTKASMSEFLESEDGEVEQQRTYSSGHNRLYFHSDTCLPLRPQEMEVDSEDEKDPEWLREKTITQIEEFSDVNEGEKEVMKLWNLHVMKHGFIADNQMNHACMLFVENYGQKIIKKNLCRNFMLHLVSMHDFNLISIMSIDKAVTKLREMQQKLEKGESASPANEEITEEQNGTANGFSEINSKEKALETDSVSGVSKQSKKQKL
Method: EZH2 Nuc BSA Brij 1.5 (IC50):
Assays were carried out by mixing rPRC2 together with biotinylated oligonucleosome substrates in the presence of the radio-labeled enzyme co-factor, S-adenosyl-L-methionine (^3H SAM) (Perkin Elmer) and monitoring the enzymatically mediated transfer of tritiated methyl groups from ^3H SAM to histone lysine residues. The amount of resulting tritiated methyl histone product was measured by first capturing the biotinylated oligonucleosomes in streptavidin (SAV) coated FlashPlates (Perkin Elmer), followed by a wash step to remove un-reacted ^3H SAM, and then counting on a TopCount NXT 384 well plate scintillation counter (Perkin Elmer). The final assay conditions for EZH2 were as follows: 50 mM Tris Buffer pH 8.5, 1 mM DTT, 69 μM Brij-35 detergent, 5.0 mM MgCl2, 0.1 mg/mL BSA, 0.2 μM ^3H SAM, 0.2 μM biotinylated oligonucleosomes, 3.6 μM H3K27me3 peptide and 2 nM EZH2.
Compound IC50 Measurements were Obtained as Follows:
Compounds were first dissolved in 100% DMSO as 10 mM stock solutions. Ten point dose response curves were generated by dispensing varying amounts of the 10 mM compound solution in 10 wells of the 384 well plate (Echo; Labcyte), pure DMSO was then used to backfill the wells to insure all wells have the same amount of DMSO. A 12.5 μL volume of the HMT enzyme, H3K27me3 peptide and oligonucleosome substrate in assay buffer was added to each well of the assay plate using a Multidrop Combi (ThermoFisher). Compounds were pre-incubated with the enzyme for 20 min, followed by initiation of the methyltransferase reaction by addition of 12.5 μL of ^3H SAM in assay buffer (final volume=25 μL). The final concentrations of compounds ranged from a top default concentration of 80 μM down to 0.16 μM in ten 2-fold dilution steps. Reactions were carried out for 60 minutes and quenched with 20 μL per well of 1.96 mM SAH, 50 mM Tris pH 8.5, 200 mM EDTA. Stopped reactions were transferred to SAV coated Flashplates (Perkin Elmer), incubated for 120 min, washed with a plate washer, and then read on the TopCount NXT (1.0 min/well) to measure the amount of methyl histone product formed during the reaction. The amount of methyl histone product was compared with the amount of product formed in the 0% and 100% inhibition control wells allowing the calculation of % Inhibition in the presence of the individual compounds at various concentrations. IC50's were computed using a 4 parameter fit non-linear curve fitting software package (XLFIT, part of the database package, ActivityBase (IDBS)) where the four parameters were IC50, Hill slope, pre-transitional baseline (0% INH), and post-transitional baseline (100% INH); with the latter two parameters being fixed to zero and 100%, respectively, by default.

[1] = read-out: EZH2 pep BSA Brij 4.0 LowE (IC50)

T1 sequence (Q15910 whole entry): as the sequence (Q15910 whole entry) above
T1 sequence (O75530 whole entry partner): as the sequence (O75530 whole entry partner) above
T1 sequence (Q15022 whole entry partner): as the sequence (Q15022 whole entry partner) above
T1 sequence (Q09028 whole entry partner): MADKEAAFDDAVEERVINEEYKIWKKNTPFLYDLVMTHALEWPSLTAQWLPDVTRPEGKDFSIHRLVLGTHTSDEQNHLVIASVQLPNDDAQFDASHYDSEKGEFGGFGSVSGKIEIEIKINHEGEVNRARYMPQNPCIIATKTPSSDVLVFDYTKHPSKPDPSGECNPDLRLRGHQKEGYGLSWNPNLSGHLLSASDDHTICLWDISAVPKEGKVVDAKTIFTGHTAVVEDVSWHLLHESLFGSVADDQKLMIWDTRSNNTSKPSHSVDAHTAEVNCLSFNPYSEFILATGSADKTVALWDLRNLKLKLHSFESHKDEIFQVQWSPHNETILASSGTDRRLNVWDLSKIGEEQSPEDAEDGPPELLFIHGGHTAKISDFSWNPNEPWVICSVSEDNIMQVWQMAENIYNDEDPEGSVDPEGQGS
T1 sequence (Q6ZN18 whole entry partner): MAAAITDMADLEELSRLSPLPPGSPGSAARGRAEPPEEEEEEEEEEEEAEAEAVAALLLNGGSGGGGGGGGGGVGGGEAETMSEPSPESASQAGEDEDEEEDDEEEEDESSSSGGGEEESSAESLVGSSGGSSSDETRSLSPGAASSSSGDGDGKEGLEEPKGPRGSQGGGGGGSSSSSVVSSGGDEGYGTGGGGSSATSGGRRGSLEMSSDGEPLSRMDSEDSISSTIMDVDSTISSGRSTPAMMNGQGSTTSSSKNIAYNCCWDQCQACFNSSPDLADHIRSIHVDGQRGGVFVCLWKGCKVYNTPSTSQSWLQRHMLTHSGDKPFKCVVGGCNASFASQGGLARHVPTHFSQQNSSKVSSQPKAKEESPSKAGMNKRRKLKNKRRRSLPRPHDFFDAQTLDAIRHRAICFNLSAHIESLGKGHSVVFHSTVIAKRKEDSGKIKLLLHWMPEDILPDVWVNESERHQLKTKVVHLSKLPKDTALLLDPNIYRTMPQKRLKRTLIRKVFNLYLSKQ

How did the IC50 (PRC2 containing wt EZH2; [1]) turn out when `COc1cc(C)[nH]c(=O)c1CNC(=O)c1c(C)n(C(C)C2CCN(C)C(C(F)(F)F)C2)c2ccccc12` (single isomer, unassigned) [Compound 24, N-((4-methoxy-6-methyl-2-oxo-1,2-dihydropyridin-3-yl)methyl)-2-methyl-1-(1-(1-methyl-2-(trifluoromethyl)piperidin-4-yl)ethyl)-1H-indole-3-carboxamide] was run?
Its IC50 is under 100 nM.

And the EC50 (H3K27me3 mark; 72 hrs)?
The EC50 was under 400 nM.

What about the IC50 (EZH2; read-out: EZH2 nuc BSA Brij 1.5 (IC50)) of the same compound?
Its IC50 is under 100 nM.

With `COc1cc(C)[nH]c(=O)c1CNC(=O)c1c(C)n(C(C)C2CCN(CC(F)F)C(C)C2)c2ccccc12` (single isomer, unassigned) [Compound 40, 1-(1-(1-(2,2-difluoroethyl)-2-methylpiperidin-4-yl)ethyl)-N-((4-methoxy-6-methyl-2-oxo-1,2-dihydropyridin-3-yl)methyl)-2-methyl-1H-indole-3-carboxamide] as the compound, how does the IC50 (PRC2 containing wt EZH2; EZH2 pep BSA Brij 4.0 LowE (IC50)) read?
The IC50 was under 100 nM.

And the EC50 (H3K27me3 mark; Homo sapiens, HeLa, 72 h)?
Its EC50 is under 400 nM.

What about the IC50 (EZH2; EZH2 nuc BSA Brij 1.5 (IC50)) of the same compound?
Its IC50 is under 100 nM.

Which IC50 (PRC2 containing wt EZH2; [1]) does the source give for `COc1cc(C)[nH]c(=O)c1CNC(=O)c1c(C)n(C(C)C2CCNC(C(F)(F)F)C2)c2ccccc12` (single isomer, unassigned) [Compound 18, N-((4-methoxy-6-methyl-2-oxo-1,2-dihydropyridin-3-yl)methyl)-2-methyl-1-(1-(2-(trifluoromethyl)piperidin-4-yl)ethyl)-1H-indole-3-carboxamide] here?
The IC50 was under 100 nM.

What about the EC50 (H3K27me3 mark; 72 hrs) of the same compound?
The EC50 was under 400 nM.

And the IC50 (EZH2; EZH2 nuc BSA Brij 1.5 (IC50))?
The IC50 was under 100 nM.
